Values joined by “and” are separate entries in the source; they are usually repeats but may differ in a detail not shown here. Identical values can stand only once. Like-named read-outs stand apart in the source and are kept apart here.
What was measured:
[1] = In vitro DPPH radical scavenging assay; conditions: test sample 100 µg/ml, 100 µM methanolic DPPH, 30 min, 517 nm
Protocol: Antioxidant activity of the synthesised compounds (10 mg/ml) was evaluated using the radical scavenging capability against the stable free radical, 2,2′-diphenyl-1-picryl hydrazyl (DPPH·). The DPPH· scavenging capability was determined using UV based spectrophotometric assay. About 200 µl of the test sample solution (100 µg/ml) was added to 4 ml of 100 µM methanolic DPPH. […] Ascorbic acid (100 µg/ml) was used as reference. The percentage inhibition of DPPH activity was estimated using the formula: Percent (%) inhibition of DPPH activity = Acontrol-Asample/Acontrol×100 where Acontrol is the absorbance of DPPH· in methanol without an antioxidant and Asample is the absorbance of DPPH· in the presence of an antioxidant.

MAO-A = biological target: T1, MAO-A (Rattus norvegicus, UniProt P21396); assay: In vitro MAO-A inhibition assay (rat brain mitochondria, serotonin substrate); assay type: biochemical; conditions: rat brain mitochondria, serotonin substrate, mean ± SEM, triplicate
T1 construct: employing crude rat brain mitochondrial suspension; from tissue; host or cells: brain mitochondria of adult Wistar rats
T1 sequence (P21396 1-526): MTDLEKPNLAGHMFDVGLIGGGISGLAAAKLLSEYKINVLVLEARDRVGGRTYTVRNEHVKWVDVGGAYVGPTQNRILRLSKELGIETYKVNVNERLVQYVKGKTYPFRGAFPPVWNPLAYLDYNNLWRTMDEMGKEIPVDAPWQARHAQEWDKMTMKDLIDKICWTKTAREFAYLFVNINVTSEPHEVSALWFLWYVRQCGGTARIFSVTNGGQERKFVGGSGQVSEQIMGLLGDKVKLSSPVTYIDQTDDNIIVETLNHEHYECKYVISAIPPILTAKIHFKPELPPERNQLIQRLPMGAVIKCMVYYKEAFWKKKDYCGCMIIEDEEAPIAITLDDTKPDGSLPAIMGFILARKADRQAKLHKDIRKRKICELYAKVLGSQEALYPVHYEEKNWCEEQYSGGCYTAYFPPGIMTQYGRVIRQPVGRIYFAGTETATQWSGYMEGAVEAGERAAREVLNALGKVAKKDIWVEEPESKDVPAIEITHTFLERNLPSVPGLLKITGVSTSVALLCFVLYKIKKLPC
Protocol: (§1) Rat brain mitochondria were used as a source of MAO isoforms. All operations were carried out at 4 °C[50]. Male and female adult Wistar rats weighing 200–220 g were decapitated. All brains were rapidly removed and homogenised with a Potter–Elvehjem homogeniser in cold 0.32 M sucrose and 50 mM Tris-HCl, pH 8.2 (10:1, v/w). The homogenate was centrifuged twice at 1000 g for 5 min at 4 °C. The resulting supernatant was centrifuged at 20,000 g for 20 min. The mitochondrial pellet obtained was suspended in 100 mM sodium phosphate buffer, pH 7.4 (4:1, v/w), fractionated in plastic vials to 500 µl samples and stored at −80 °C. Before use, mitochondria were diluted with 100 mM sodium phosphate buffer to give a working solution of 0.80 mg of protein per millilitre.
(§2) The experiments were carried out under all the suitable laboratory conditions. […] An aliquot was made to contain mixture of 55 µl mitochondrial suspension (0.80 mg of protein/ml), 90 µl 50 mM Tris-HCl buffer, pH 8.2 and 30 µl solubilising solution (control or inhibitor solution at five different concentrations). The reaction was initiated by adding 25 µl of serotonin (4 mM, substrate for MAO-A) and 25 µl benzylamine (0.1 M, substrate for MAO-B) for the determination of MAO-A and MAO-B activity, respectively. The mixture was incubated at 37 °C for 30 min and the reaction was stopped by the addition of 50 µl of 1 N HCl. The absorbance associated with the production of 5-hydroxyindolacetic acid was measured at 280 nm for the estimation of MAO-A while for MAO-B estimation, the absorbance was measured at 250 nm due to the formation of benzaldehyde. All the assays were performed in triplicate. Control experiments were carried out without inhibitor and blanks were run without mitochondrial suspension.
(§3) Data are expressed as mean ± standard error mean (SEM) of experiments performed in triplicate.
(§4) 0, 15, 30 and 60 min at 37 °C in Tris-HCl buffer (50 mM, pH 8.2). […] The reactions were further incubated at 37 °C for a further 15 min and the residual enzyme activities were measured and the bar graphs were constructed. All measurements were carried out in triplicate and are expressed as mean ± SEM.

MAO-B = biological target: T2, MAO-B (Rattus norvegicus, UniProt P19643); assay: biochemical; conditions: for SI (selectivity index for MAO-B): ratio of experimental IC50(MAO-A)/IC50(MAO-B)
T2 construct: employing crude rat brain mitochondrial suspension; from tissue; host or cells: brain mitochondria of adult Wistar rats
T2 sequence (P19643 1-520): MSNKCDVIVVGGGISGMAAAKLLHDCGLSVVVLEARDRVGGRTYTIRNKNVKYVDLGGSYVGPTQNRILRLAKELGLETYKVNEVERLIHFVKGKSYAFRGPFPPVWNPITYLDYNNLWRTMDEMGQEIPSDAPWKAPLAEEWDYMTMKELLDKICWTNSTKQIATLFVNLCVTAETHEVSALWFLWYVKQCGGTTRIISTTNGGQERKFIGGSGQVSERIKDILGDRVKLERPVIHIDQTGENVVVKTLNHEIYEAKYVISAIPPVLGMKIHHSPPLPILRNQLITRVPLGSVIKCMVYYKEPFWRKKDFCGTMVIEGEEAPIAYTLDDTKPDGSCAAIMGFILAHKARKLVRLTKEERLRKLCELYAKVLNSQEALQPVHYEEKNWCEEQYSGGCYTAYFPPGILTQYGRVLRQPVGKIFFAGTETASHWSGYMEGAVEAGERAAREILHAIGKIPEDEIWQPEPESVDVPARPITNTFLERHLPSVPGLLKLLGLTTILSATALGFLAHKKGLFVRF
Protocol: as §1, §2, §3, §4

rat brain AChE = biological target: T3, rat brain AChE (Rattus norvegicus, UniProt P37136); assay: biochemical; assay type: biochemical; conditions: for IC50: rat brain AChE, ACTI substrate, mean ± SEM, triplicate
T3 construct: the resulting clear supernatants obtained were used as enzyme sources; from tissue; host or cells: rat brain cortex homogenate, 10,000 g supernatant
T3 sequence (P37136 32-614): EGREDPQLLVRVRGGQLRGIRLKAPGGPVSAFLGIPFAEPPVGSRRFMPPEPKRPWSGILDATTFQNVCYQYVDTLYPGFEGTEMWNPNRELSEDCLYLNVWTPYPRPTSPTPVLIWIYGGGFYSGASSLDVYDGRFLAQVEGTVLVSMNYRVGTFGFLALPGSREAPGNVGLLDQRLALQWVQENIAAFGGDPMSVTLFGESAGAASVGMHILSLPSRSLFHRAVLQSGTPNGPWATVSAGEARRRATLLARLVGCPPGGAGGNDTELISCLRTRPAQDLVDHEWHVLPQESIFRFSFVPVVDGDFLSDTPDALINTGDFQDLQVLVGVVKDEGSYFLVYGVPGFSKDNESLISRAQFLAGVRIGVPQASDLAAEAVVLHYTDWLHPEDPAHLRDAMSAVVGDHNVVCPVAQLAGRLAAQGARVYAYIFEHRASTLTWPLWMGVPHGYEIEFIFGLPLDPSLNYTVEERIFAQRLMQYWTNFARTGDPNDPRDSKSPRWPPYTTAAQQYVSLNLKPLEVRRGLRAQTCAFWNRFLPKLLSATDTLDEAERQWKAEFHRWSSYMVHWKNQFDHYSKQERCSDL
Protocol: Rat brain was used as a source of AChE enzyme. Rats were separately decapitated, the brain cortices quickly removed, weighed and homogenised in cold 10 mM Tris-HCl buffer, pH 7.2, containing 160 mM sucrose. The homogenates were centrifuged at 10,000 g for 10 min at 4 °C, and the resulting clear supernatants obtained were used as enzyme sources that were divided into aliquots and stored at −20 °C.
About 30 µl of enzyme sample (AChE) was added to 60 µl of 20 mM sodium phosphate buffer (pH 7.4) and were incubated in the presence of 30 µl of 10 mM DTNB solution with different concentrations of the test compounds. The enzyme reaction was initiated by the addition of 30 µl of 0.8 mM ACTI. The mixtures were incubated for 15 min at 25 °C. […] Control experiments were carried out without inhibitor, and blanks were run without AChE enzyme. All the assays were performed in triplicate. IC50 values were determined using the GraphPad Prism 5.0 (San Diego, CA) and the results were expressed as mean ± SEM.
0, 15, 30 and 60 min at 25 °C in sodium phosphate buffer (20 mM, pH 7.4) and DTNB solution (10 mM). […] The reaction was further incubated at 25 °C for a further 15 min and the residual enzyme activities were measured and the bar graphs were constructed. All measurements were carried out in triplicate and are expressed as mean ± SEM.

mice = assay: Neurotoxicity screening (rotarod test); assay type: in vivo; conditions: for Neurotoxicity (animals that exhibit toxicity / animals tested): 30 mg/kg i.p.
Protocol: The neurotoxicity screening was undertaken according to the method followed by the National Institute of Health, using their reported procedures[55]^,[56]. Male albino mice (CF-1 strain or Swiss, 18–25 g) were used as experimental animals. The animals were housed in metabolic cages, and allowed free access to food and water. The test compounds were suspended in 0.5% methylcellulose/water mixture or in polyethylene glycol (PEG 200).
Minimal motor impairment was measured in mice by the rotarod test. The mice were trained to stay on an accelerating rotarod that rotates at six revolutions per minute. The rod diameter was 3.2 cm. Trained animals were given i.p. injection of the selected inhibitors at a dose of 30 mg/kg. Neurotoxicity was indicated by the inability of the animal to maintain equilibrium on the rod for at least 1 min in each of the three trials.

[2] = read-out: MAO-A In vitro IC50 (µM) ± SEM
[3] = read-out: AChE In vitro IC50 (µM) ± SEM

| Compound | % inhibition of DPPH activity [1] [%] | IC50 (MAO-A; [2]) | IC50 (MAO-B) [µM] | SI (selectivity index for MAO-B) (MAO-B) | AChE: fold decrease in activity versus bromo substitution (compound 4) (rat brain AChE; halogen at carbimino terminal phenyl ring) [fold] | IC50 (rat brain AChE; [3]) [µM] | logP (physchem; octanol/water) | MAO-B: fold greater potency relative to compound 11 (MAO-B; ratio of IC50 values) [fold] | AChE: fold greater potency relative to compound 11 (rat brain AChE; ratio of IC50 values) [fold] | Neurotoxicity (animals that exhibit toxicity / animals tested) (mice; 0.5 h) | Neurotoxicity (animals that exhibit toxicity / animals tested) (mice; 1 h) | Neurotoxicity (animals that exhibit toxicity / animals tested) (mice; 2 h) | Neurotoxicity (animals that exhibit toxicity / animals tested) (mice; 4 h) | IC50 (MAO-A; MAO-A In vitro IC50 (µM) ± SEM) [µM] | IC50 (rat brain AChE; AChE In vitro IC50 (µM) ± SEM) [µM] | logP (physchem) | Neurotoxicity (verdict in words) (mice; 30 mg/kg, relative to phenytoin) |
| --- | --- | --- | --- | --- | --- | --- | --- | --- | --- | --- | --- | --- | --- | --- | --- | --- | --- |
| O=C1O[C@H]([C@@H](O)CO)C(O)=C1O [Ascorbic acid, reference compound] | 61.24 |  |  |  |  |  |  |  |  |  |  |  |  |  |  |  |  |
| CC(=NNC(=O)Nc1ncc([N+](=O)[O-])s1)c1ccc(F)cc1 [Compound 6, 1-(1-(4-Fluorophenyl)ethylidene)-4-(5-nitrothiazol-2-yl)semicarbazide] | 30.43 | > 100 µM and 46100 µM | 19.89 ± 0.032 | 2316.04 | > 1000 | 468 ± 4.98 | 1.3 |  |  |  |  |  |  |  |  |  |  |
| CC(=NNC(=O)Nc1ncc([N+](=O)[O-])s1)c1ccc(O)cc1 [Compound 7, 1-(1-(4-Hydroxyphenyl)ethylidene)-4-(5-nitrothiazol-2-yl)semicarbazide] |  | 5899 ± 9.84 µM | 14.75 ± 0.018 | 399.93 |  | 12.7 ± 0.62 | 1.2 | ~16.37 | ~46 | 0/4 | 0/4 | 0/4 | 0/4 |  |  |  |  |
| CC(=NNC(=O)Nc1ncc([N+](=O)[O-])s1)c1ccc([N+](=O)[O-])cc1 [Compound 8, 1-(1-(4-Nitrophenyl)ethylidene)-4-(5-nitrothiazol-2-yl)semicarbazide] | 11.60 |  | 23.88 ± 0.022 | 114.86 |  |  |  |  |  |  |  |  |  | 2743 ± 3.65 | 45.5 ± 1.36 | 1.4 |  |
| O=C(NN=C(CBr)c1ccc(Br)cc1)Nc1ncc([N+](=O)[O-])s1 [Compound 9, 1-(2-Bromo-1-(4-bromophenyl)ethylidene)-4-(5-nitrothiazol-2-yl)semicarbazide] | 35.89 | 314 ± 1.89 µM | 0.313 ± 0.007 | 1003.19 |  | 3.926 ± 0.014 |  |  |  | 2/4 | 1/4 | 0/4 | 0/4 |  |  |  | moderately neurotoxic |
| O=C(NN=Cc1ccc(Br)cc1)Nc1ncc([N+](=O)[O-])s1 [Compound 10, 1-(4-Bromobenzylidene)-4-(5-nitrothiazol-2-yl)semicarbazide] |  | 5153 ± 8.82 µM | 5.451 ± 0.009 | 945.33 |  | 96.4 ± 2.81 | 2.5 |  |  |  |  |  |  |  |  |  |  |
| O=C(NN=Cc1ccc(O)cc1)Nc1ncc([N+](=O)[O-])s1 [Compound 11, 1-(4-Hydroxybenzylidene)-4-(5-nitrothiazol-2-yl)semicarbazide] |  | 11340 ± 11.7 µM | 241.5 ± 2.31 | 46.96 |  | 584 ± 7.92 | 1.6 |  |  |  |  |  |  |  |  |  |  |
| COc1ccc(OC)c(C=NNC(=O)Nc2ncc([N+](=O)[O-])s2)c1 [Compound 15, 1-(2,5-Dimethoxybenzylidene)-4-(5-nitrothiazol-2-yl)semicarbazide] | 10.58 | > 100 µM and 55000 µM | 11.1 ± 0.19 | 4945.91 |  | 872 ± 4.38 |  |  |  |  |  |  |  |  |  |  |  |
| O=C1NC(=O)C(c2ccccc2)(c2ccccc2)N1 [Phenytoin, reference compound] |  |  |  |  |  |  |  |  |  | 0/4 | 0/4 | 0/4 | 0/2 |  |  |  |  |

Reference: paper PMC6009888, “Design, synthesis, and pharmacological evaluation of 2-amino-5-nitrothiazole derived semicarbazones as dual inhibitors of monoamine oxidase and cholinesterase: effect of the size of aryl binding site” (Journal of Enzyme Inhibition and Medicinal Chemistry, 2017)
